Data: US20150105252A1, “SUBSTITUTED PYRAZOLES AS HERBICIDES” (E I DU PONT DE NEMOURS AND COMPANY, priority 2013, published 2015)

Key:
crabgrass, large = test: Test A preemergence; assay type: in vivo, Digitaria sanguinalis; settings: 0 to 100 scale
In short: (§1)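 Greenhouse test in loam soil/sand blend; compounds formulated in non-phytotoxic solvent with surfactant, applied as preemergence directed soil spray or postemergence to plants 2–10 cm tall at one- to two-leaf stage. Injury rated visually versus untreated controls after approximately 10 days on a 0 (no effect) to 100 (complete control) scale.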

wheat = test: Test A preemergence; assay type: in vivo, Triticum aestivum; settings: preemergence
In short: as §1

morningglory = test: Test A postemergence; assay type: in vivo, Ipomoea spp.
In short: as §1

ragweed [1] = test: Test C preemergence; assay type: in vivo, Ambrosia elation
In short: (§2)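 In this greenhouse assay, seeded soil (loam plus sand) or emerged seedlings in peat-vermiculite medium were treated with formulated compound. Roughly two weeks later (13–15 days), each species was scored visually relative to controls, from 0 for no effect to 100 for complete control.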

soybean [2] = test: Test C preemergence; assay type: in vivo, Glycine max
In short: as §2

barnyardgrass = test: Test C preemergence; assay type: in vivo, Echinochloa crus-galli
In short: as §2

waterhemp = test: Test C preemergence; assay type: in vivo, Amaranthus rudis
In short: as §2

velvetleaf = test: Test C preemergence; assay type: in vivo, Abutilon theophrasti
In short: as §2

ryegrass, Italian = test: Test C postemergence; assay type: in vivo, Lolium multiflorum
In short: as §2

corn = test: Test C postemergence; assay type: in vivo, Zea mays
In short: as §2

foxtail, giant = test: Test C postemergence; assay type: in vivo, Setaria faberii
In short: as §2

johnsongrass = test: Test C postemergence; assay type: in vivo, Sorghum halepense
In short: as §2

nutsedge, yellow = test: Test C postemergence; assay type: in vivo, Cyperus esculentus
In short: as §2

ragweed [3] = test: Test C postemergence; assay type: in vivo, Ambrosia elation
In short: as §2

soybean [4] = test: Test C postemergence; assay type: in vivo, Glycine max
In short: as §2

oilseed rape = test: Test C postemergence; assay type: in vivo, Brassica napus
In short: as §2

[5] = preemergence, 31 g ai/ha, visual rating, scale 0 to 100 (0 no effect, 100 complete control), 13 to 15 days
[6] = preemergence, 62 g ai/ha, 13 to 15 days, scale 0 to 100, 0 = no effect, 100 = complete control
[7] = preemergence, 125 g ai/ha, scale 0 to 100, 0 is no effect, 100 is complete control
[8] = Postemergence, 31 g ai/ha, visually evaluated after 13 to 15 days
[9] = postemergence, 62 g ai/ha, scale 0 to 100
[10] = postemergence, 250 g ai/ha, scale 0 to 100 (0 no effect, 100 complete control)
[11] = postemergence, 125 g ai/ha, scale 0 to 100, 0 no effect, 100 complete control

**Q.** How did the “Crabgrass, Large plant response rating” value (crabgrass, large; Preemergence, 500 g ai/ha, 0 no effect, 100 complete control) turn out when `CCc1cc(C(=O)NCC(F)(F)F)nn1Cc1ccnc(C(F)(F)F)c1` [Compound 78, 5-ethyl-N-(2,2,2-trifluoroethyl)-1-[[(2-trifluoromethyl)-4-pyridinyl]methyl]-1H-pyrazole-3-carboxamide] was run?
**A.** 100

**Q.** What about the “Crabgrass, Large plant response rating” value (crabgrass, large; preemergence, 125 g ai/ha, visual injury, approx. 10 days) of the same molecule?
**A.** 100

**Q.** And the “Wheat plant response rating” value (wheat; 125 g ai/ha, visual injury, 0 to 100 scale, approx. 10 days)?
**A.** 50

**Q.** And the “Wheat plant response rating” value (wheat; 500 g ai/ha, visual injury after approx. 10 days, 0 to 100 scale (0 no effect, 100 complete control))?
**A.** 100

**Q.** And the “Morningglory plant response rating” value (morningglory; Postemergence, 500 g ai/ha, visual rating after approx. 10 days, 0 to 100 scale (0 no effect, 100 complete control))?
**A.** 100

**Q.** What about the “Morningglory plant response rating” value (morningglory; postemergence, 125 g ai/ha, about 10 days, visual rating on 0 to 100 scale (0 no effect, 100 complete control)) of the same molecule?
**A.** 100

**Q.** What about the “Plant response rating (scale of 0 to 100), Ragweed” value (ragweed [1]; Preemergence, 250 g ai/ha) of the same molecule?
**A.** 100

**Q.** What about the “Ragweed plant response rating” value (ragweed [1]; [5]) of the same molecule?
**A.** 80

**Q.** What about the “Plant response rating, Ragweed” value (ragweed [1]; [6]) of the same molecule?
**A.** 98

**Q.** What about the “Ragweed plant response rating” value (ragweed [1]; [7]) of the same molecule?
**A.** 98

**Q.** And the “Plant response rating (scale of 0 to 100), Soybean” value (soybean [2]; Preemergence, 250 g ai/ha)?
**A.** 98

**Q.** And the “Soybean plant response rating” value (soybean [2]; [5])?
**A.** 98

**Q.** And the “Plant response rating, Soybean” value (soybean [2]; [6])?
**A.** 98

**Q.** And the “Soybean plant response rating” value (soybean [2]; [7])?
**A.** 98

**Q.** What about the “Plant response rating (scale of 0 to 100), Barnyardgrass” value (barnyardgrass; Preemergence, 250 g ai/ha) of the same molecule?
**A.** 100

**Q.** What about the “Barnyardgrass plant response rating” value (barnyardgrass; preemergence, 31 g ai/ha, scale 0 to 100 (0 no effect, 100 complete control), 13 to 15 days) of the same molecule?
**A.** 100

**Q.** What about the “Plant response rating, Barnyardgrass” value (barnyardgrass; [6]) of the same molecule?
**A.** 100

**Q.** What about the “Barnyardgrass plant response rating” value (barnyardgrass; [7]) of the same molecule?
**A.** 100

**Q.** And the “Plant response rating (scale of 0 to 100), Waterhemp” value (waterhemp; Preemergence, 250 g ai/ha)?
**A.** 100

**Q.** What about the “Waterhemp plant response rating” value (waterhemp; [5]) of the same molecule?
**A.** 100

**Q.** And the “Plant response rating, Waterhemp” value (waterhemp; [6])?
**A.** 100

**Q.** What about the “Waterhemp plant response rating” value (waterhemp; [7]) of the same molecule?
**A.** 100

**Q.** And the “Plant response rating (scale of 0 to 100), Velvetleaf” value (velvetleaf; Preemergence, 250 g ai/ha)?
**A.** 100

**Q.** And the “Velvetleaf plant response rating” value (velvetleaf; [5])?
**A.** 80

**Q.** What about the “Plant response rating, Velvetleaf” value (velvetleaf; [6]) of the same molecule?
**A.** 100

**Q.** What about the “Velvetleaf plant response rating” value (velvetleaf; [7]) of the same molecule?
**A.** 100

**Q.** What about the “Plant response rating (scale of 0 to 100 where 0 is no effect and 100 is complete control), Ryegrass, Italian” value (ryegrass, Italian; [8]) of the same molecule?
**A.** 5

**Q.** What about the “Ryegrass, Italian plant response rating” value (ryegrass, Italian; [9]) of the same molecule?
**A.** 5

**Q.** And the “Plant response rating, Ryegrass, Italian” value (ryegrass, Italian; [10])?
**A.** 35

**Q.** And the “Plant response rating, Ryegrass, Italian” value (ryegrass, Italian; [11])?
**A.** 5

**Q.** What about the “Plant response rating (scale of 0 to 100 where 0 is no effect and 100 is complete control), Corn” value (corn; [8]) of the same molecule?
**A.** 10

**Q.** And the “Corn plant response rating” value (corn; [9])?
**A.** 15

**Q.** And the “Plant response rating, Corn” value (corn; [10])?
**A.** 80

**Q.** What about the “Plant response rating, Corn” value (corn; [11]) of the same molecule?
**A.** 25

**Q.** And the “Plant response rating (scale of 0 to 100 where 0 is no effect and 100 is complete control), Foxtail, Giant” value (foxtail, giant; [8])?
**A.** 15

**Q.** And the “Foxtail, Giant plant response rating” value (foxtail, giant; [9])?
**A.** 20

**Q.** And the “Plant response rating, Foxtail, Giant” value (foxtail, giant; [10])?
**A.** 95

**Q.** And the “Plant response rating, Foxtail, Giant” value (foxtail, giant; [11])?
**A.** 50

**Q.** What about the “Plant response rating (scale of 0 to 100 where 0 is no effect and 100 is complete control), Johnsongrass” value (johnsongrass; [8]) of the same molecule?
**A.** 0

**Q.** And the “Johnsongrass plant response rating” value (johnsongrass; [9])?
**A.** 5

**Q.** And the “Plant response rating, Johnsongrass” value (johnsongrass; [10])?
**A.** 75

**Q.** What about the “Plant response rating, Johnsongrass” value (johnsongrass; [11]) of the same molecule?
**A.** 55

**Q.** And the “Plant response rating (scale of 0 to 100 where 0 is no effect and 100 is complete control), Nutsedge, Yellow” value (nutsedge, yellow; [8])?
**A.** 5

**Q.** And the “Nutsedge, Yellow plant response rating” value (nutsedge, yellow; [9])?
**A.** 5

**Q.** And the “Plant response rating, Nutsedge, Yellow” value (nutsedge, yellow; [10])?
**A.** 15

**Q.** And the “Plant response rating, Nutsedge, Yellow” value (nutsedge, yellow; [11])?
**A.** 10

**Q.** And the “Plant response rating (scale of 0 to 100 where 0 is no effect and 100 is complete control), Ragweed” value (ragweed [3]; [8])?
**A.** 35

**Q.** What about the “Ragweed plant response rating” value (ragweed [3]; [9]) of the same molecule?
**A.** 75

**Q.** What about the “Plant response rating, Ragweed” value (ragweed [3]; [10]) of the same molecule?
**A.** 95

**Q.** And the “Plant response rating, Ragweed” value (ragweed [3]; [11])?
**A.** 85

**Q.** What about the “Plant response rating (scale of 0 to 100 where 0 is no effect and 100 is complete control), Soybean” value (soybean [4]; [8]) of the same molecule?
**A.** 50

**Q.** What about the “Soybean plant response rating” value (soybean [4]; [9]) of the same molecule?
**A.** 80

**Q.** And the “Plant response rating, Soybean” value (soybean [4]; [10])?
**A.** 85

**Q.** And the “Plant response rating, Soybean” value (soybean [4]; [11])?
**A.** 80

**Q.** And the “Plant response rating (scale of 0 to 100 where 0 is no effect and 100 is complete control), Oilseed Rape” value (oilseed rape; [8])?
**A.** 45

**Q.** And the “Oilseed Rape plant response rating” value (oilseed rape; [9])?
**A.** 45

**Q.** What about the “Plant response rating, Oilseed Rape” value (oilseed rape; [10]) of the same molecule?
**A.** 55

**Q.** And the “Plant response rating, Oilseed Rape” value (oilseed rape; [11])?
**A.** 50
